Results taken from patent US20210252265A1, “DEVICES AND METHODS FOR ULTRASONIC DELIVERY OF AN AGENT WITHIN AN ORAL CAVITY” (Suono Bio, Inc., priority 2018, published 2021).

System: oral inflammatory lesions in hamster cheek pouches
Experiment: Treatment of acetic acid-induced oral inflammatory lesions in hamster cheek pouches
Type: in vivo, Golden Syrian hamsters
Conditions: mean +/- SEM
Experimental: FIG. 10 is a schematic of the procedure used to test delivery of budesonide to treat or prevent ulcers induced by acetic acid in hamster cheek pouches. 50% acetic acid was administered for 60 seconds. Male Golden Syrian hamsters weighing 100-120 g (Charles River Laboratories, Wilmington, Mass.) were used as received and randomly assigned to experimental groups by the researchers performing the work. To limit pain and distress, all animals received buprenorphine sustained release (SR) (subcutaneous administration, 1 mg/kg body weight, compounded by ZooPharm) just prior to the application of acetic acid for the induction of the oral lesion on day 0. All manipulations occurred with the animal under general anesthesia by inhaled isoflurane. Experimental treatment groups included topical application of budesonide solution with (Budesonide+US) and without (Budesonide) ultrasound. A positive disease control receiving no treatment was also included (Disease). Treatment was administered on day 0 immediately prior to lesion induction using acetic acid. While under general anesthesia, the left cheek pouch was everted, the device was placed on the buccal surface, and the fluid chamber filled with solubilized budesonide solution (0.1%, ˜1 mL). For the Budesonide+US treatment group, ultrasound was simultaneously applied for 3 seconds at an intensity of 5 W/cm2 and a 100% duty cycle. In experimental groups receiving budesonide only (Budesonide), drug was applied as described above without turning the ultrasound on. Immediately following budesonide treatment, oral lesions were induced by topical application of acetic acid (50% solution) as described in previous studies. Briefly, acetic acid was applied to the buccal surface using a liquid holder with a circular area of 5 mm2 for 60 seconds. After acetic acid application, the hamsters were placed back into their cages to recover. On every subsequent day, the cheek pouches were everted to reveal the lesion and an image captured to quantify lesion size. Treatments were then applied as described above. Lesion size was measured using ImageJ (National Institutes of Health, Bethesda, Md.). All data analysis was performed using GraphPad Prism software (GraphPad Software, Inc., La Jolla, Calif., USA). Two-group comparisons were made using Student's unpaired t-test using Welch's correction. Multiple comparisons were made using one-way ANOVA followed by Tukey's post-test. For all comparisons, p<0.05 was considered statistically significant. Data are reported as mean±standard error of the mean (SEM) except for temperature measurements that are reported as mean±standard deviation (SD).

SMILES: CCCC1O[C@@H]2C[C@H]3[C@@H]4CCC5=CC(=O)C=C[C@]5(C)[C@H]4[C@@H](O)C[C@]3(C)[C@]2(C(=O)CO)O1 (stereo partly shown) [Budesonide]
- oral lesion size (24 hours post-acetic acid induced injury, budesonide solution 0.1% with 40 kHz ultrasound 3 seconds, 5 W/cm2): 15.7+/−1.3 mm2
- oral lesion size (24 hours post-acetic acid induced injury, topical budesonide solution 0.1% without ultrasound): 20.3+/−1.1 mm2
- oral lesion size (48 hours after acetic acid-induced injury, budesonide with ultrasound): 18.71+/−2.3 mm2
- oral lesion size (48 hours after acetic acid-induced injury, topical budesonide without ultrasound): 25.5+/−1.6 mm2
